Test results taken from PubChem BioAssay (NCI).
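Five compound concentrations were applied to cells in 96-well plates for 48 hours; endpoints were derived by simple linear interpolation of the resulting dose-response curve. Here, GI50 denotes the concentration required for 50% inhibition of growth. TGI is the concentration that stops growth completely.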

Experiments:
Experiment in all cases: NCI-60 cell line screen, 48 h
HT29 colon = system: HT29 colon
KM12 colon = system: KM12 colon
MCF7 breast = system: MCF7 breast
MDA-MB-231 breast = system: MDA-MB-231 breast
NCI/ADR-RES ovarian = system: NCI/ADR-RES ovarian
OVCAR-4 ovarian = system: OVCAR-4 ovarian
SNB-19 CNS = system: SNB-19 CNS
U251 CNS = system: U251 CNS
UO-31 renal = system: UO-31 renal
BT-549 breast = system: BT-549 breast

COc1c(-c2cc(C)c(Cl)c(=O)[nH]2)c(O)c(OC)c2occc12
TGI (HT29 colon): > 100 µM
TGI (KM12 colon): > 100 µM
TGI (MCF7 breast): > 100 µM
TGI (MDA-MB-231 breast): > 100 µM
TGI (NCI/ADR-RES ovarian): > 100 µM
TGI (OVCAR-4 ovarian): > 100 µM
TGI (SNB-19 CNS): > 100 µM
TGI (U251 CNS): > 100 µM
TGI (UO-31 renal): > 100 µM

Brc1ccc2c(-c3nc(-c4c[nH]c5ccccc45)cs3)c[nH]c2c1
TGI (BT-549 breast): > 96.8 µM
TGI (HT29 colon): > 100 µM
TGI (KM12 colon): > 47.3 µM
TGI (MCF7 breast): > 100 µM
TGI (MDA-MB-231 breast): > 89.4 µM
TGI (NCI/ADR-RES ovarian): > 100 µM
TGI (OVCAR-4 ovarian): > 100 µM
TGI (SNB-19 CNS): > 100 µM
TGI (U251 CNS): > 100 µM
TGI (UO-31 renal): > 100 µM

CC1(CCCC2(C)CCNC2=O)OCCO1 (stereo not drawn)
TGI (BT-549 breast): > 10 µM
TGI (HT29 colon): > 10 µM
TGI (KM12 colon): > 10 µM
TGI (MCF7 breast): > 10 µM
TGI (MDA-MB-231 breast): > 10 µM
TGI (NCI/ADR-RES ovarian): > 10 µM
TGI (OVCAR-4 ovarian): > 10 µM
TGI (SNB-19 CNS): > 10 µM
TGI (U251 CNS): > 10 µM
TGI (UO-31 renal): > 10 µM

CCN(CC)CCCCCCCCNc1c2ccc(Cl)cc2nc2ccc(OC)cc12
GI50 (HT29 colon): 0.597 µM
TGI (HT29 colon): 2.25 µM
GI50 (KM12 colon): 1.42 µM
TGI (KM12 colon): 3.92 µM
GI50 (MDA-MB-231 breast): 1.48 µM
TGI (MDA-MB-231 breast): 3.09 µM
GI50 (NCI/ADR-RES ovarian): 2.46 µM
TGI (NCI/ADR-RES ovarian): 10.3 µM
GI50 (OVCAR-4 ovarian): 1.14 µM
TGI (OVCAR-4 ovarian): 2.71 µM
GI50 (SNB-19 CNS): 1.81 µM
TGI (SNB-19 CNS): 4.63 µM
GI50 (U251 CNS): 1.38 µM
TGI (U251 CNS): 2.97 µM
GI50 (UO-31 renal): 1.72 µM
TGI (UO-31 renal): 4.34 µM

COc1c2occc2c(OC)c2c(=O)c(S(=O)(=O)NC(=O)Nc3ccc(Cl)cc3)coc12
TGI (BT-549 breast): > 10 µM
TGI (HT29 colon): > 10 µM
TGI (KM12 colon): > 10 µM
TGI (MCF7 breast): > 10 µM
TGI (MDA-MB-231 breast): > 10 µM
TGI (NCI/ADR-RES ovarian): > 10 µM
TGI (OVCAR-4 ovarian): > 10 µM
TGI (SNB-19 CNS): > 10 µM
TGI (U251 CNS): > 10 µM
TGI (UO-31 renal): > 10 µM

N#CCCNCCN(CCN(C(=O)Nc1ccccc1)c1ccccc1)C(=O)Nc1ccccc1
TGI (BT-549 breast): > 100 µM
TGI (HT29 colon): > 100 µM
TGI (MCF7 breast): > 100 µM
TGI (MDA-MB-231 breast): > 100 µM
TGI (NCI/ADR-RES ovarian): > 100 µM
TGI (SNB-19 CNS): > 100 µM
TGI (U251 CNS): > 100 µM
TGI (UO-31 renal): > 100 µM

COc1cc2c(cc1OCCCC(=O)Nc1cc(C(=O)Nc3cc(C(=O)Nc4cc(C(=O)NCCCN(C)C)n(C)c4)n(C)c3)n(C)c1)N=C[C@@H]1CCCN1C2=O
TGI (BT-549 breast): 4.91 µM
TGI (HT29 colon): 4.1 µM
TGI (KM12 colon): > 52.2 µM
TGI (MCF7 breast): 7.25 µM
TGI (MDA-MB-231 breast): 5.53 µM
TGI (NCI/ADR-RES ovarian): 6.21 µM
TGI (OVCAR-4 ovarian): 3.15 µM
TGI (SNB-19 CNS): 17.6 µM
TGI (U251 CNS): 3.01 µM
TGI (UO-31 renal): 3.06 µM

C=CCNC1=C2C[C@@H](C)C[C@@H](OC)C(OC(=O)CCCN(C)C)[C@H](C)/C=C(\C)[C@@H](OC(N)=O)[C@H](OC)/C=C\C=C(/C)C(=O)NC(=CC1=O)C2=O (stereo partly drawn)
TGI (BT-549 breast): 27.6 µM
TGI (HT29 colon): 12.1 µM
TGI (KM12 colon): 14.6 µM
TGI (MCF7 breast): 12.1 µM
TGI (MDA-MB-231 breast): 17.5 µM
TGI (NCI/ADR-RES ovarian): 52.1 µM
TGI (OVCAR-4 ovarian): 26.3 µM
TGI (SNB-19 CNS): 28.9 µM
TGI (U251 CNS): 26.6 µM
TGI (UO-31 renal): 26.6 µM

CCSSCS(C)(=O)=O
TGI (BT-549 breast): 96.5 µM
TGI (HT29 colon): > 100 µM
TGI (KM12 colon): > 100 µM
TGI (MCF7 breast): 68.5 µM
TGI (MDA-MB-231 breast): > 100 µM
TGI (NCI/ADR-RES ovarian): 83.8 µM
TGI (OVCAR-4 ovarian): 40 µM
TGI (SNB-19 CNS): > 100 µM
TGI (U251 CNS): > 100 µM
TGI (UO-31 renal): 24.4 µM

CO/C(=N\N=C\c1ccc(Cl)cc1)c1ccncc1
TGI (HT29 colon): > 100 µM
TGI (KM12 colon): > 100 µM
TGI (OVCAR-4 ovarian): > 100 µM
TGI (SNB-19 CNS): > 100 µM
TGI (U251 CNS): > 100 µM
TGI (UO-31 renal): > 100 µM

CC(=O)Nc1ccc2c(C(=O)O)c(C)c(=O)[nH]c2n1
TGI (BT-549 breast): > 100 µM
TGI (HT29 colon): > 100 µM
TGI (KM12 colon): > 100 µM
TGI (MCF7 breast): > 100 µM
TGI (MDA-MB-231 breast): > 100 µM
TGI (NCI/ADR-RES ovarian): > 100 µM
TGI (SNB-19 CNS): > 100 µM
TGI (U251 CNS): > 100 µM
TGI (UO-31 renal): > 100 µM

COC(=O)C1=C(C)N2CCCOC2(C)C(C(=O)OC)C1c1cccc(Cl)c1 (stereo not drawn)
TGI (HT29 colon): 56.2 µM
TGI (KM12 colon): 43.9 µM
TGI (OVCAR-4 ovarian): > 100 µM
TGI (SNB-19 CNS): > 100 µM
TGI (UO-31 renal): 71.2 µM

Oc1nc(N/N=C/c2c[nH]c3ccccc23)[nH]c1/C=C1\C=Nc2ccccc21
TGI (BT-549 breast): 60.3 µM
TGI (HT29 colon): 47.5 µM
TGI (KM12 colon): 44.8 µM
TGI (MCF7 breast): 29.5 µM
TGI (MDA-MB-231 breast): 43.2 µM
TGI (NCI/ADR-RES ovarian): 84.5 µM
TGI (OVCAR-4 ovarian): 86.1 µM
TGI (SNB-19 CNS): > 100 µM
TGI (U251 CNS): 32.3 µM

COC12C=C/C(=C(/C(=O)OCc3ccncn3)C(=O)CCCCCCCCC3(OC)C=C/C(=C(/C(=O)OCc4ccncn4)C(=O)CCCCCCCC1)O3)O2
GI50 (BT-549 breast): 0.225 µM
TGI (BT-549 breast): 0.78 µM
GI50 (HT29 colon): 0.266 µM
TGI (HT29 colon): 0.689 µM
GI50 (KM12 colon): 0.227 µM
TGI (KM12 colon): 0.499 µM
GI50 (MCF7 breast): 0.314 µM
TGI (MCF7 breast): 11 µM
GI50 (MDA-MB-231 breast): 0.335 µM
TGI (MDA-MB-231 breast): > 100 µM
GI50 (NCI/ADR-RES ovarian): 0.417 µM
TGI (NCI/ADR-RES ovarian): 12.6 µM
GI50 (OVCAR-4 ovarian): 0.317 µM
TGI (OVCAR-4 ovarian): 2.16 µM
GI50 (SNB-19 CNS): 0.509 µM
TGI (SNB-19 CNS): 17.1 µM
GI50 (U251 CNS): 0.335 µM
TGI (U251 CNS): 1.54 µM

COc1ccc2c(c1)OCC1(O)Cc3ccccc3OC21 (stereo not drawn)
TGI (BT-549 breast): > 100 µM
TGI (HT29 colon): > 100 µM
TGI (KM12 colon): > 100 µM
TGI (MCF7 breast): > 100 µM
TGI (MDA-MB-231 breast): > 100 µM
TGI (NCI/ADR-RES ovarian): > 100 µM
TGI (OVCAR-4 ovarian): > 100 µM
TGI (U251 CNS): > 100 µM
TGI (UO-31 renal): > 100 µM

CC(C)CC(=O)NC(Nc1ccc(S(=O)(=O)Nc2ncccn2)cc1)(C(F)(F)F)C(F)(F)F
TGI (BT-549 breast): > 100 µM
TGI (HT29 colon): > 100 µM
TGI (KM12 colon): > 100 µM
TGI (MDA-MB-231 breast): > 100 µM
TGI (NCI/ADR-RES ovarian): > 100 µM
TGI (OVCAR-4 ovarian): > 100 µM
TGI (SNB-19 CNS): > 100 µM
TGI (U251 CNS): > 100 µM
TGI (UO-31 renal): > 100 µM

CC(=O)N1N=C(c2c(O)ccc3ccccc23)CC1C(=O)c1ccco1 (stereo not drawn)
TGI (BT-549 breast): 45 µM
TGI (HT29 colon): > 100 µM
TGI (KM12 colon): > 100 µM
TGI (MCF7 breast): 47.7 µM
TGI (MDA-MB-231 breast): 74.6 µM
TGI (NCI/ADR-RES ovarian): > 100 µM
TGI (OVCAR-4 ovarian): > 100 µM
TGI (U251 CNS): > 100 µM
TGI (UO-31 renal): > 100 µM

C1=C[C@@H]2c3ccc4cnccc4c3NC[C@@H]2C1
TGI (BT-549 breast): > 100 µM
TGI (KM12 colon): > 100 µM
TGI (MCF7 breast): > 100 µM
TGI (NCI/ADR-RES ovarian): > 100 µM
TGI (SNB-19 CNS): > 100 µM
TGI (U251 CNS): > 100 µM
TGI (UO-31 renal): > 100 µM

CC1(C)O[C@H](C(=O)O)[C@@H](C(=O)O)O1
TGI (HT29 colon): > 100 µM
TGI (KM12 colon): > 100 µM
TGI (MCF7 breast): > 100 µM
TGI (MDA-MB-231 breast): > 100 µM
TGI (NCI/ADR-RES ovarian): > 100 µM
TGI (OVCAR-4 ovarian): > 100 µM
TGI (SNB-19 CNS): > 100 µM
TGI (U251 CNS): > 100 µM

O=C1C=Cc2c(Cl)sc(Cl)c21
TGI (BT-549 breast): 7.92 µM
TGI (HT29 colon): 3.34 µM
TGI (MCF7 breast): 3.9 µM
TGI (MDA-MB-231 breast): > 100 µM
TGI (NCI/ADR-RES ovarian): 5.32 µM
TGI (OVCAR-4 ovarian): 37.1 µM
TGI (SNB-19 CNS): 19.8 µM
TGI (U251 CNS): > 100 µM

CN(C)N=Nc1ccc([N+](=O)[O-])cc1C(N)=O
TGI (HT29 colon): > 100 µM
TGI (KM12 colon): > 100 µM
TGI (MCF7 breast): > 100 µM
TGI (NCI/ADR-RES ovarian): > 100 µM
TGI (OVCAR-4 ovarian): > 100 µM
TGI (SNB-19 CNS): > 100 µM
TGI (U251 CNS): > 100 µM
TGI (UO-31 renal): > 100 µM
